target: T1, hP2X3 (human Purinergic P2X receptors subtype 3), clone B (Homo sapiens, UniProt P56373); assay: hP2X3 FLIPR calcium (Fluo-4) antagonist assay, clone B; settings: Human P2X3 FLIPR Clone B IC50 (nM), RLE cells expressing hP2X3 clone B (NM_002559); agonist 500 nM α,β-methylene-ATP
T1 sequence (P56373 1-397): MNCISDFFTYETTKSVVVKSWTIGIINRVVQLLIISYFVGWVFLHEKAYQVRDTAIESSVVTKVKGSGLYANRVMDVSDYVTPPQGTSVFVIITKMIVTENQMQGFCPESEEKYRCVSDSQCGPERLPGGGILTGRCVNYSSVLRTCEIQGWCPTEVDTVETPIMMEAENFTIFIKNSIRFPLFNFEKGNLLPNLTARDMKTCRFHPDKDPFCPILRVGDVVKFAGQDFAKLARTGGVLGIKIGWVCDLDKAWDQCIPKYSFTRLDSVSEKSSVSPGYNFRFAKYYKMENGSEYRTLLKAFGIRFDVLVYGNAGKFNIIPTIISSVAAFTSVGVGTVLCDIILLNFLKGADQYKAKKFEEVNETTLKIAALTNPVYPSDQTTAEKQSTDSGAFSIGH

| SMILES | IC50 [nM] |
| --- | --- |
| CCOC(=O)C(CNc1nc(N2CCN(C(C)=O)CC2)nc2c1CN(C(C)C)C2=O)c1ccccc1 (centres unmarked) [Example 2, ethyl 3-{[2-(4-acetylpiperazin-1-yl)-6-isopropyl-7-oxo-6,7-dihydro-5H-pyrrolo[3,4-d]pyrimidin-4-yl]amino}-2-phenylpropanoate] | 1900 |
| CC(=O)N1CCN(c2nc3c(c(N4CCCC4c4ccc5ncccc5c4)n2)CN(C(C)C)C3=O)CC1 (single isomer, unassigned) [Example 284, 4-(4-acetylpiperazin-1-yl)-8-propan-2-yl-2-(2-quinolin-6-ylpyrrolidin-1-yl)-3,5,8-triazabicyclo[4.3.0]nona-1,3,5-trien-7-one] | 9900 |
| CCN1CCN(c2nc(NC(C)(C)Cc3ccc(Cl)cc3)c3c(n2)C(=O)N(C(C)C)C3)CC1 [Example 64, 4-{[2-(4-chlorophenyl)-1,1-dimethylethyl]amino}-2-(4-ethylpiperazin-1-yl)-6-isopropyl-5,6-dihydro-7H-pyrrolo[3,4-d]pyrimidin-7-one] | 3500 |
| CC(C)N1Cc2c(NCc3cnc4ccccc4c3)nc(NCC3CCOCC3)nc2C1=O [Example 219, 6-(1-methylethyl)-4-[(quinolin-3-ylmethyl)amino]-2-[(tetrahydro-2H-pyran-4-ylmethyl)amino]-5,6-dihydro-7H-pyrrolo[3,4-d]pyrimidin-7-one] | 8400 |
| CC(C)N1Cc2c(NCc3cnc4ccccc4c3)nc(NCCS(C)(=O)=O)nc2C1=O [Example 215, 6-isopropyl-2-(2-methylsulfonylethylamino)-4-(3-quinolylmethylamino)-5H-pyrrolo[3,4-d]pyrimidin-7-one] | 2000 |
| CC(=O)N1CCN(c2nc(NC(c3ccc(C(C)C)cc3)C(C)C)c3c(n2)C(=O)N(C(C)C)C3)CC1 (centres unmarked) [Example 10, 2-(4-acetylpiperazin-1-yl)-6-isopropyl-4-{[1-(4-isopropylphenyl)-2-methylpropyl]amino}-5,6-dihydro-7H-pyrrolo[3,4-d]pyrimidin-7-one] | 1200 |
| CC(C)N1Cc2c(NCc3cnc4ccccc4c3)nc(N(C)C)nc2C1=O [Example 220, 2-(dimethylamino)-6-(1-methylethyl)-4-[(quinolin-3-ylmethyl)amino]-5,6-dihydro-7H-pyrrolo[3,4-d]pyrimidin-7-one] | 9600 |
| CC(=O)N1CCN(c2nc(NC(C)(C)Cc3cccc(C)c3)c3c(n2)C(=O)N(C(C)C)C3)CC1 [Example 333, 2-(4-acetylpiperazin-1-yl)-6-isopropyl-4-(2-methyl-1-m-tolylpropan-2-ylamino)-5H-pyrrolo[3,4-d]pyrimidin-7(6H)-one] | 830 |
| CC(=O)N1CCN(c2nc(NCCc3ccc(C)cc3C)c3c(n2)C(=O)N(C(C)C)C3)CC1 [Example 56, 2-(4-acetylpiperazin-1-yl)-4-{[2-(2,4-dimethylphenyl)ethyl]amino}-6-isopropyl-5,6-dihydro-7H-pyrrolo[3,4-d]pyrimidin-7-one] | 2700 |
| CC(=O)N1CCN(c2nc3c(c(N(C)Cc4ccc5ncccc5c4)n2)CN(C(C)C)C3=O)CC1 [Example 239, 2-(4-acetylpiperazin-1-yl)-6-isopropyl-4-(methyl(quinolin-6-ylmethyl)amino)-5H-pyrrolo[3,4-d]pyrimidin-7(6H)-one] | 1200 |
| CCCN1Cc2c(NC(c3ccccc3)c3ccccc3)nc(N3CCOCC3)nc2C1=O [Example 110, 4-[(diphenylmethyl)amino]-2-morpholin-4-yl-6-propyl-5,6-dihydro-7H-pyrrolo[3,4-d]pyrimidin-7-one] | 3300 |
| CC(=O)N1CCN(c2nc(NC(C)(C)Cc3ccccc3C)c3c(n2)C(=O)N(C(C)C)C3)CC1 [Example 197, 2-(4-acetylpiperazin-1-yl)-6-isopropyl-4-(2-methyl-1-o-tolylpropan-2-ylamino)-5H-pyrrolo[3,4-d]pyrimidin-7(6H)-one] | 1900 |
| CC(=O)NC1CCN(c2nc(NCc3cnc4ccccc4c3)c3c(n2)C(=O)N(C(C)C)C3)C1 (centres unmarked) [Example 207, N-(1-(6-isopropyl-7-oxo-4-(quinolin-3-ylmethylamino)-6,7-dihydro-5H-pyrrolo[3,4-d]pyrimidin-2-yl)pyrrolidin-3-yl)acetamide] | 7100 |
| CC(=O)N1CCN(c2nc(NC(C)c3ccc(C(C)(C)C#N)c(F)c3)c3c(n2)C(=O)N(C(C)C)C3)CC1 (centres unmarked) [Example 163, 2-(4-(1-(2-(4-acetylpiperazin-1-yl)-6-isopropyl-7-oxo-6,7-dihydro-5H-pyrrolo[3,4-d]pyrimidin-4-ylamino)ethyl)-2-fluorophenyl)-2-methylpropanenitrile] | 1700 |
| CC(C)N1Cc2c(NCc3cnc4ccccc4c3)nc(N3CCN(C(=O)C4CC4)CC3)nc2C1=O [Example 222, 2-[4-(cyclopropylcarbonyl)piperazin-1-yl]-6-(1-methylethyl)-4-[(quinolin-3-ylmethyl)amino]-5,6-dihydro-7H-pyrrolo[3,4-d]pyrimidin-7-one] | 6300 |
| CC(C)N1Cc2c(NCc3cnc4ccccc4c3)nc(N3CCC(N(C)C)C3)nc2C1=O (centres unmarked) [Example 213, 2-(3-dimethylaminopyrrolidin-1-yl)-6-isopropyl-4-(3-quinolylmethylamino)-5H-pyrrolo[3,4-d]pyrimidin-7-one] | 1100 |
| CC(=O)N1CCN(c2nc3c(c(N4CCOC(C)(c5ccc(Cl)cc5)C4)n2)CN(C(C)C)C3=O)CC1 (centres unmarked) [Example 123, 2-(4-acetylpiperazin-1-yl)-4-[2-(4-chlorophenyl)-2-methylmorpholin-4-yl]-6-isopropyl-5,6-dihydro-7H-pyrrolo[3,4-d]pyrimidin-7-one] | 9100 |

Stronger by IC50, values ahead:

| IC50 [nM] | SMILES |
| --- | --- |
| 680 | CC(C)N1Cc2c(NCc3cnc4ccccc4c3)nc(N3CCn4cnnc4C3)nc2C1=O [Example 137, 2-(5,6-Dihydro-[1,2,4]triazolo[4,3-a]pyrazin-7(8H)-yl)-6-isopropyl-4-(quinolin-3-ylmethylamino)-5H-pyrrolo[3,4-d]pyrimidin-7(6H)-one] |
| 490 | COc1cccc(CC2CCCN2c2nc(N3CCN(C(C)=O)CC3)nc3c2CN(C(C)C)C3=O)c1 (centres unmarked) [Example 291, 2-(4-acetylpiperazin-1-yl)-6-isopropyl-4-[2-[(3-methoxyphenyl)methyl]pyrrolidin-1-yl]-5H-pyrrolo[3,4-d]pyrimidin-7-one] |
| 270 | CC(=O)N1CCN(c2nc(NCc3cn(C4CCCC4)nc3C)c3c(n2)C(=O)N(C(C)C)C3)CC1 [Example 152, 4-(4-acetylpiperazin-1-yl)-2-[(1-cyclopentyl-3-methyl-pyrazol-4-yl)methylamino]-8-propan-2-yl-3,5,8-triazabicyclo[4.3.0]nona-2,4,10-trien-7-one] |
| 210 | COCCNc1nc(NC(c2ccccc2)c2ccc(C)cc2)c2c(n1)C(=O)N(C(C)C)C2 (centres unmarked) [Example 98, 6-isopropyl-2-(2-methoxy-ethylamino)-4-[(phenyl-p-tolyl-methyl)-amino]-5,6-dihydro-pyrrolo[3,4-d]-pyrimidin-7-one] |
| 190 | CC(=O)N1CCN(c2nc(NC(C)C3COc4ccccc4O3)c3c(n2)C(=O)N(C(C)C)C3)CC1 (single isomer, unassigned) [Example 179, 2-(4-acetylpiperazin-1-yl)-4-(1-(2,3-dihydrobenzo[b][1,4]dioxin-2-yl)ethylamino)-6-isopropyl-5H-pyrrolo[3,4-d]pyrimidin-7(6H)-one] |
| 180 | CCN1CCN(c2nc(NC(c3ccccc3)c3ccc(Cl)cc3)c3c(n2)C(=O)N(C(C)C)C3)CC1 (centres unmarked) [Example 18, 4-{[(4-chlorophenyl)(phenyl)methyl]amino}-2-(4-ethylpiperazin-1-yl)-6-isopropyl-5,6-dihydro-7H-pyrrolo[3,4-d]pyrimidin-7-one] |
| 150 | CC(=O)N1CCN(c2nc3c(c(N4CCCC4Cc4ccc(F)cc4)n2)CN(C(C)C)C3=O)CC1 (centres unmarked) [Example 129, 2-(4-Acetylpiperazin-1-yl)-4-[2-(4-fluorobenzyl)-pyrrolidin-1-yl]-6-isopropyl-5H-pyrrolo[3,4-d]pyrimidin-7(6H)-one] |
| 93 | CC(C)N1Cc2c(NC(c3ccccc3)c3ccc(Cl)cc3)nc(N(C)CCN(C)C)nc2C1=O (centres unmarked) [Example 19, 4-{[(4-chlorophenyl)(phenyl)methyl]amino}-2-[[2-(dimethylamino)ethyl](methyl)amino]-6-isopropyl-5,6-dihydro-7H-pyrrolo[3,4-d]pyrimidin-7-one] |
| 68 | CC(=O)N1CCN(c2nc(NCc3cc4ccccc4nc3C)c3c(n2)C(=O)N(C(C)C)C3)CC1 [Example 241, 2-(4-acetylpiperazin-1-yl)-6-isopropyl-4-((2-methylquinolin-3-yl)methylamino)-5H-pyrrolo[3,4-d]pyrimidin-7(6H)-one] |
| 65 | CCOc1ccc([C@@H](C)Nc2nc(N3CCN(C(C)=O)CC3)nc3c2CN(C(C)C)C3=O)cc1C [Example 167, (R)-2-(4-acetylpiperazin-1-yl)-4-(1-(4-ethoxy-3-methylphenyl)ethylamino)-6-isopropyl-5H-pyrrolo[3,4-d]pyrimidin-7(6H)-one] |
| 62 | CC(=O)N1CCN(c2nc(NCc3cnc4ccccc4c3)c3c(n2)C(=O)N(C(C)C)C3)C[C@H]1C [Example 328, (R)-2-(4-acetyl-3-methylpiperazin-1-yl)-6-isopropyl-4-(quinolin-3-ylmethylamino)-5H-pyrrolo[3,4-d]pyrimidin-7(6H)-one] |
| 47 | CC(=O)N1CCN(c2nc3c(c(N(C)Cc4cnc5ccccc5c4)n2)CN(C(C)C)C3=O)CC1 [Example 346, 2-(4-acetylpiperazin-1-yl)-6-isopropyl-4-(methyl(quinolin-3-ylmethyl)amino)-5H-pyrrolo[3,4-d]pyrimidin-7(6H)-one] |
